Ten molecules from BindingDB's records for doi:10.1021/acs.jmedchem.1c01403 (Lupin, 2021) can be followed below.

A short description of the assay: Inhibition of PHA-stimulated IL2 secretion in human Jurkat T cells preincubated for 10 mins followed by PHA addition and measured after 20 to 24 hrs by ELISA. A general note: ELISA stands for enzyme-linked immunosorbent assay.
One may read the IC50 as the concentration that gives 50% inhibition. Read a low IC50 as greater potency. `Cc1ccc(C2=NOC(C)(C)C2=O)cc1-c1cnc(NC(=O)c2ccccc2Cl)cn1` [US10292981, Example 78] gave an IC50 of 171 nM. To `Cc1ccc(C2=NOC(C)(C)C2=O)cc1-c1ccc(NC(=O)c2c(F)cccc2F)nc1` [US10292981, Example 4] belongs 178 nM; to `Cc1ccc(C2=NOC(C)(C)C2=O)cc1-c1cnc(NC(=O)c2c(F)cccc2Cl)cn1` [US10292981, Example 80], 65 nM; to `Cc1ccc(C2=NOC(C)(C)C2)cc1-c1cnc(NC(=O)c2c(F)cccc2F)cn1` [US10292981, Example 53], 328 nM. The value for `Cc1ccc(C2=NOC(C)(C)C2=O)cc1-c1cnc(NC(=O)c2c(F)cncc2F)cn1` [US10292981, Example 114] was 94 nM; that for `CCn1nc(-c2ccc(C)c(-c3ccc(NC(=O)c4c(F)cccc4F)cc3)c2)oc1=O` [US10292981, Example 34] was 78 nM; that for `Cc1ccc(C2=NOC(C)(C)C2=O)cc1-c1ccc(NC(=O)c2c(F)cccc2F)cc1` [US10292981, Example 3] was 69 nM.

Molecule `Cc1ccc(C2=NOC(C)(C)C2=O)cc1-c1cnc(C(=O)Nc2c(F)cccc2F)cn1` [US10292981, Example 121] came in with an IC50 of 150 nM. To `Cc1ccc(-c2nn(C)c(=O)o2)cc1-c1cnc(NC(=O)c2c(F)cccc2F)cn1` [US10292981, Example 87] belongs 64 nM; to `Cc1ccc(-c2nn(C)c(=O)o2)cc1-c1ccc(NC(=O)c2c(F)cccc2F)cc1` [US10292981, Example 33], 34 nM.
